Experimental data reported in patent publication US20070270393A1, “Methods and compositions for modulation of sleep cycle” (priority 2006, published 2007).

What was measured:
[1] = test system: HPA axis activity (cortisol, ACTH) and melatonin in chronic insomnia subjects; assay: Overnight melatonin (dim light), cortisol and ACTH levels in the insomnia study; type: in vivo, human; conditions: after 5 days treatment in the outpatient setting, FIG. 3
[2] = test system: healthy male; conditions: given in the afternoon, Wiedemann 1992; cited from earlier work
[3] = biological target: T1, progesterone receptors (Homo sapiens, UniProt P06401); conditions: literature; cited from earlier work
T1 sequence (P06401 1-933): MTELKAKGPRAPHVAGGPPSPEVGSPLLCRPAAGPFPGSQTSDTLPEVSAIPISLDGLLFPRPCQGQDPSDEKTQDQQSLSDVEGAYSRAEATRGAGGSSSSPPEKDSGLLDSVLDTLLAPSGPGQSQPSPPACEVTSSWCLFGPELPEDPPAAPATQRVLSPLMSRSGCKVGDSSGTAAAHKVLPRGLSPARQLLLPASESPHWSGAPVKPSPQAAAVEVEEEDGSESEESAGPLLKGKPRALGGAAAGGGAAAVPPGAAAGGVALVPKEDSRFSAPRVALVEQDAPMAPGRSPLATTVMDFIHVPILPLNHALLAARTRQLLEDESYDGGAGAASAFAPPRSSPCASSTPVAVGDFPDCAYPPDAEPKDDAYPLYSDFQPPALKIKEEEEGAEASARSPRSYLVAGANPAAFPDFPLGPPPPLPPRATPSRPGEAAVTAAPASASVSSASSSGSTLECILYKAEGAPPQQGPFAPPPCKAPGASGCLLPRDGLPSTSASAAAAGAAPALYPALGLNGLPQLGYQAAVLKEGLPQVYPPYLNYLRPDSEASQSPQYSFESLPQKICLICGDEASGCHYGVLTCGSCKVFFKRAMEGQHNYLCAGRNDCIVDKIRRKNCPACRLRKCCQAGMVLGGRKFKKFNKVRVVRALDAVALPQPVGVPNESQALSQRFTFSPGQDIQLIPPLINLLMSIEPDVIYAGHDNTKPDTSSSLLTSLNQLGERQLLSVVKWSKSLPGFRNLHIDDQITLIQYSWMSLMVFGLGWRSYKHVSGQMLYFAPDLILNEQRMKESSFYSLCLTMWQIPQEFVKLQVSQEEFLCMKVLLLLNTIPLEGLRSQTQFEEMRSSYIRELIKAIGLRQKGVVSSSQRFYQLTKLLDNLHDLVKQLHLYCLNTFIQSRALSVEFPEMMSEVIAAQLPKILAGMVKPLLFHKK

[4] = test system: HPA axis activity in healthy control subject; assay: 2 days of a GR antagonist in healthy control subject under constant routine conditions, salivary cortisol; type: in vivo, human; conditions: 400 mg for two consecutive days, single healthy subject, FIG. 5
Experimental: In a separate experiment, the longitudinal effects of 2 days of a GR antagonist on melatonin and HPA axis activity was measured in healthy control subject during an inpatient stay under constant routine conditions. […] Salivary cortisol, ACTH and dim light melatonin were measured the evening/morning before and on the second evening/morning of medication. The design was created to include measures of the phase of night-time DLMO as well as measures of the morning response of the HPA axis, including timing of cortisol acrophase. The design was formulated to ascertain circadian phase shifting in a controlled setting with healthy subjects (as might occur in jet-lag or shift work). […] Salivary melatonin samples were insufficient.

[5] = one study, Kawai (1989); cited from earlier work
[6] = biological target: T2, glucocorticoid (GR) receptors (Homo sapiens, UniProt P04150); conditions: literature; cited from earlier work
T2 sequence (P04150 1-777): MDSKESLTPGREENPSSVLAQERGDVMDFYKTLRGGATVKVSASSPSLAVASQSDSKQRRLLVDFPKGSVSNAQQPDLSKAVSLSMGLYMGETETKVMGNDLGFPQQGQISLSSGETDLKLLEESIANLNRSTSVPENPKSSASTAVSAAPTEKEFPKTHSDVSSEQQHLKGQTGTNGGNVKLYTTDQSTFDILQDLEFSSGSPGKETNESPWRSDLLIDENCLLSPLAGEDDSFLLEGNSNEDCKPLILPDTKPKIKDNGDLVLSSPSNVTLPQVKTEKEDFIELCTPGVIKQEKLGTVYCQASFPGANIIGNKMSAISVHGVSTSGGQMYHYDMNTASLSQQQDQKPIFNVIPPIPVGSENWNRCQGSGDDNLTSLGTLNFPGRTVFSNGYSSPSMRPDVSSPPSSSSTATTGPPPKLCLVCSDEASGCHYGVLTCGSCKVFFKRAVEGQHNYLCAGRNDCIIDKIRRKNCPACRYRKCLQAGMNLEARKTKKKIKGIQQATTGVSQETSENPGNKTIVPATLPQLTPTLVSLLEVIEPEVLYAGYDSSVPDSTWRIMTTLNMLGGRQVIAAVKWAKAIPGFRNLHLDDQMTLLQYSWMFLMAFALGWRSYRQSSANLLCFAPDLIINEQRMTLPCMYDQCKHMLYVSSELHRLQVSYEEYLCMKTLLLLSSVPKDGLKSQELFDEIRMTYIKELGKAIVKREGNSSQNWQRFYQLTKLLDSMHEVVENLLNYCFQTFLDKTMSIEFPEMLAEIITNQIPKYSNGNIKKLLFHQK

CC#C[C@]1(O)CC[C@H]2[C@@H]3CCC4=CC(=O)CCC4=C3[C@@H](c3ccc(N(C)C)cc3)C[C@@]21C [mifepristone, 17-beta-hydroxy-11-beta-(4-dimethyl-aminophenyl)-17-alpha-(1-propynyl)-estra-4,9-dien-3-one]
DLMO (time at which melatonin reaches 20 pg/ml) [1]: delay | effect on sleep [2]: significant worsening of sleep | antagonist of progesterone receptors [3]: powerful antagonist | cortisol [4]: rise | timing of the morning acrophase of cortisol [4]: delay | excreted in the urine [5]: less than 0.5 % of the daily dose | antagonist of glucocorticoid (GR) receptors [6]: powerful antagonist
